Data from US6479476B1, “19-nor steroids substituted in position 11β, preparation method and intermediates, application as medicines and pharmaceutical compositions containing them” (Aventis Pharma S.A., priority 1997, dated 2002).
Read-outs that look alike come from different tables or passages of the source.

Experiments:
[1] = tested on: human mammary cells MCF-7; assay: Effect on the proliferation of mammary cells (MCF-7, DNA quantitation after 7 days); format: cell-based; design: key: The molecules inducing a cellular growth identical to that observed with the solvent alone are classed “inactivated”; Inhibitor: those inducing cellular growth lower than that observed with the solvent are classed “inhibitor”; *Mixed: slight agonist activity in very weak concentrations and inhibitory activity in stronger concentrations; details: MCF-7 cells in steroid-free medium, 7 days of culture, DNA analysis; compared with oestradiol at 10^-10M = 100% agonist activity
From the text: 1—Effect on the Proliferation of Mammary Cells The proliferative activity of the molecules is studied comparatively with that of oestradiol on the human mammary cells MCF-7 in culture. To highlight the agonist effect of oestradiol and/or the molecules tested, the culture medium for the maintenance of the cells (rich in growth factors and in steroids) is replaced by a more impoverished medium, amongst others lacking in steroids (DMEM supplemented by 5% of serum with steroid removed and without phenol red). The cells undergo this deprivation two days before the start of the trial. After 7 days of culture in the presence of the products to be studied, the cellular proliferation is evaluated by quantitive analysis of the DNA. In each trial, the effect of the oestradiol at 10^−10M (cellular growth in the presence of oestradiol less cellular growth in the presence of solvent) determines the agonist activity at 100%. The activity of the molecules is evaluated in comparison to this internal control. The molecules inducing a cellular growth identical to that observed with the solvent alone are classed “inactivated”, those inducing cellular growth lower than that observed with the solvent are classed “inhibitor”.

[2] = target: T1, recombinant human oestrogen receptor (Homo sapiens, UniProt P03372); assay: Affinity for the human oestrogen receptor (REH), displacement of tritiated oestradiol, relative affinity ARL; format: binding
T1 construct: comprising the coding region for the human oestrogen receptor of wild type; made in house; host or cells: SF9 insect cells (ATCC CRL1711), baculovirus
T1 sequence (P03372 1-595): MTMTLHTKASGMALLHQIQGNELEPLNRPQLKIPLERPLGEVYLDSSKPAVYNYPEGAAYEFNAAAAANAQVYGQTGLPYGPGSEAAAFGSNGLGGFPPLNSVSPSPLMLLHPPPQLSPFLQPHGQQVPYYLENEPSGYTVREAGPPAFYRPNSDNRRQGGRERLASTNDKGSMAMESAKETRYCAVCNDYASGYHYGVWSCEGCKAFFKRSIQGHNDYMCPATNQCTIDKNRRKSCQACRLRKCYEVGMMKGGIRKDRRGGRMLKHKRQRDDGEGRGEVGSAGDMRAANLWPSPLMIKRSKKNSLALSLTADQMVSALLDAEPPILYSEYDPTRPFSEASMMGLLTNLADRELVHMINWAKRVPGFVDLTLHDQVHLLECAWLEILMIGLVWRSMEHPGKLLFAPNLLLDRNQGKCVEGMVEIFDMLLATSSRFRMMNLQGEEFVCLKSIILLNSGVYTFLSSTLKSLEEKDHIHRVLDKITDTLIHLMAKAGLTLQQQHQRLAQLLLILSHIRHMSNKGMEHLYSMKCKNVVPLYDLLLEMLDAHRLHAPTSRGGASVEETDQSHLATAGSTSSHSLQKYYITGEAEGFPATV
From the text: 2—Affinity of the Human Oestrogen Receptor (REH)
A cytosolic extract of SF9 cells containing the recombinant human oestrogen receptor is obtained by over-expression in an insect-Baculo-viros system of cells, according to the general methodology described by N. R. WEBB et al. (Journal of Methods in cell and Molecular Biology, (1990) vol 2 n°4, 173-188) and whose application is described for the expression of human hormonal receptors, for example the human glucocorticoid receptor (G.SRINIVASAN et al. Molecular Endocrinology (1990) vol 4 n°2 209-216).
The BaculoGold Transfection Kit (PharMingen, reference 21000K) is used to generate the recombinant baculovirus containing the fragment of DNAc described in the expression vector HEGO by L. TORA et al. (The EMBO Journal (1989) vol 8 n°7 1981-1986) comprising the coding region for the human oestrogen receptor of wild type with glycine in position 400.
The recombinant virus obtained in this way is used to express the […] receptor in the cells of insects SF9 (ATCC CRL1711), according to the known methodology previously cited.
2×10^7 SF9 cells are cultivated in a 175 cm^2 “Falcon” flask in TNM-FH “SIGMA” medium supplemented with 10% of foetal calf serum (FCS) and 50 micrograms/ml of gentamycine. After infection then incubation at 27° C. for 40 to 42 hours, the cells are lysed in 1 ml of lyse buffer (Tris 20 mM-HCl pH8, EDTA 0.5 mM, DTT 2mM, Glycerol 20%, KCl 400 mM) by a freezing-defrosting cycle that is repeated twice more. The supernatant, containing the recombinant human oestrogen receptor is preserved in liquid nitrogen in 0.5 ml amounts.
The supernatant is incubated at 0° C. for 24 hours with a consistent concentration (T) of oestradiol tritiated in the presence of growing concentrations either of cold oestradiol (0-1000×10^−9M), or of cold product to be tested (0-25000×10^−9M). The concentration of linked triated oestradiol (B) is then measured in each incubation by the dextran carbon adsorption technique.
3—Calculation of the Affinity Relative to Linking (ARL)
The 2 following curves are plotted: the percentage of 100×B/BO linked tritiated hormone in comparison to the logarithm of the concentration of cold reference hormone or in comparison to the logarithm of the concentration of cold product tested.
The soundness of the following equation is determined:
B0=Concentration of the linked tritiated hormone in the absence of any cold product,
B=Concentration of the linked tritiated hormone in the presence of an X concentration of cold product,
Bmin=Concentration of linked tritiated hormone for an incubation of this tritiated hormone in concentration (T) in the presence of a large excess of cold reference hormone (1000×10^−9) for human receptor.
The intersections of the right angle I50 and the curves, make it possible to evaluate the concentration of cold reference hormone (CH) and the tested cold product (CX) which inhibit 50% of the bond of the tritiated hormone on the receptor.
The relative affinity of the link (ARL) of the tested product is determined by the equation: […]

[3] = incubation at 0° C. for 24 hours with tritiated oestradiol, ARL=100(CH)/(CX), oestradiol = 100

Row | SMILES | ACTIVITY (proliferative activity on MCF-7 cells) [1] | Relative affinity of the link (ARL), EH oestradiol = 100, 24 H [2, 3] | Relative affinity of the link (ARL), EH oestradiol = 100, 24 H [2]
1 | C[C@]12C[C@H](c3ccc(CCCN4CCCCC4)cc3)[C@@H]3c4ccc(O)cc4CC[C@H]3[C@@H]1CC[C@@H]2O [Example 9] | Inhibitor | 28 | 
2 | C[C@]12C[C@H](c3ccc(CCCN4CCCC4)cc3)[C@@H]3c4ccc(O)cc4CC[C@H]3[C@@H]1CC[C@@H]2O [Example 7, 11β-[4-[3-(1-pyrrolidinyl)propyl]phenyl]-estra-1,3,5(10)-trien-3,17β-diol] | Inhibitor |  | 59
3 | C[C@]12CC[C@@H]3c4ccc(O)cc4CC[C@H]3[C@@H]1CC[C@@H]2O [Oestradiol, reference compound] | Agonist |  | 
4 | CC1(O)CCC2C3CCc4cc(O)ccc4C3C(c3ccc(CCCN4CCCCC4)cc3)CC21C (stereo not drawn) [Example 13, 17α-methyl-11β-[4-[3-(1-piperidininyl)propyl]phenyl]-estra-1,3,5(10)-trien-3,17β-diol] | Inhibitor | 42 | 
5 | CCN(CC)CCCc1ccc([C@H]2C[C@]3(C)[C@@H](O)CC[C@H]3[C@@H]3CCc4c(ccc(O)c4Cl)[C@H]32)cc1 [Example 12, 4-chloro-11β-[4-[3-(1-diethylamino)propyl]phenyl]-estra-1,3,5(10)-trien-3,17β-diol] | Inhibitor | 28 | 
6 | C[C@]12C[C@H](c3ccc(CCCN4CCCCC4)cc3)[C@@H]3c4ccc(O)c(Cl)c4CC[C@H]3[C@@H]1CC[C@@H]2O [Example 11, 4-chloro-11β-[4-[3-(1-piperidinyl)propyl]phenyl]-estra-1,3,5(10) -trien-3,17β-diol] | Mixed |  | 14
